Columns and labels:
HepG2 cells = experiment: Cytotoxic activity on HepG2 cells (CCK-8 assay); format: cell-based; conditions: Homo sapiens, HepG2; CCK-8, 48 h, mean of three experiments ±SD; read-out: IC50 over HepG2 cells
Protocol: Human hepatocellular liver carcinoma cell line (HepG2) were obtained from Institute of Biochemistry and Cell Biology, Academy of Science (Shanghai, China) and were authenticated using the STR profiling method. HepG2 cells were cultured in MDEM (Gibco, Waltham, MA, USA) supplemented with 10% fetal bovine serum (FBS) and 1% penicillin-streptomycin bubbled with 5% CO2-enriched air at a temperature of 37 °C (Thermo Scientific, Waltham, MA, USA). The cytotoxic effect of compounds on HepG2 cells was assessed by using CCK-8 method. Briefly, HepG2 cells were cultured in 96-well plates at a density of 5 × 10^3 cells per well for 24 h. […] Three replicates were performed. The relative cell viability was expressed as percentage relative to the untreated cells. The inhibition ratio was calculated. The IC50 values were calculated using Logistic regression from three independent tests.

[1] = rats; cited from earlier work

Compound | IC50 (HepG2 cells) [µM] | oral bioavailability [1] | t1/2 [1]
C[C@H](NC(=O)OC(C)(C)C)C(=O)O[C@H]1CC[C@@]2(C)C(CC[C@]3(C)C2C[C@@H](O)C2C([C@]4(C)CC[C@H](C(C)(C)O)O4)CC[C@]23C)C1(C)C (stereo partly drawn) [1a, (20S, 24R)-Epoxy-3β-O-(Boc-L-alanyl)-dammarane-12β, 25-diol] | 26.3 ± 0.72 | – | –
CSCC[C@H](NC(=O)OC(C)(C)C)C(=O)O[C@H]1CC[C@@]2(C)C(CC[C@]3(C)C2C[C@@H](O)C2C([C@]4(C)CC[C@H](C(C)(C)O)O4)CC[C@]23C)C1(C)C (stereo partly drawn) [1b, (20S, 24R)-Epoxy-3β-O-(Boc-L-methinyl)-dammarane-12β, 25-diol] | 73.5 ± 2.6 | – | –
CC(C)(C)OC(=O)NCC(=O)O[C@H]1CC[C@@]2(C)C(CC[C@]3(C)C2C[C@@H](O)C2C([C@]4(C)CC[C@H](C(C)(C)O)O4)CC[C@]23C)C1(C)C (stereo partly drawn) [1c, (20S, 24R)-Epoxy-3β-O-(Boc-L-glycyl)-dammarane-12β, 25-diol] | 26.6 ± 1.52 | – | –
CC(C)C[C@H](NC(=O)OC(C)(C)C)C(=O)O[C@H]1CC[C@@]2(C)C(CC[C@]3(C)C2C[C@@H](O)C2C([C@]4(C)CC[C@H](C(C)(C)O)O4)CC[C@]23C)C1(C)C (stereo partly drawn) [1d, (20S, 24R)-Epoxy-3β-O-(Boc-L-leucyl)-dammarane-12β,25-diol] | 73.1 ± 1.67 | – | –
CC(C)(C)OC(=O)N1CCCC1C(=O)O[C@H]1CC[C@@]2(C)C(CC[C@]3(C)C2C[C@@H](O)C2C([C@]4(C)CC[C@H](C(C)(C)O)O4)CC[C@]23C)C1(C)C (stereo partly drawn) [1e, (20S, 24R)-Epoxy-3β-O-(Boc-L-prolyl)-dammarane-12β, 25-diol] | 30.5 ± 2.98 | – | –
CC(C)[C@H](NC(=O)OC(C)(C)C)C(=O)O[C@H]1CC[C@@]2(C)C(CC[C@]3(C)C2C[C@@H](O)C2C([C@]4(C)CC[C@H](C(C)(C)O)O4)CC[C@]23C)C1(C)C (stereo partly drawn) [1f, (20S, 24R)-Epoxy-3β-O-(Boc-L-valyl)-dammarane-12β, 25-diol] | 62.1 ± 3.78 | – | –
C[C@H](N)C(=O)O[C@H]1CC[C@@]2(C)C(CC[C@]3(C)C2C[C@@H](O)C2C([C@]4(C)CC[C@H](C(C)(C)O)O4)CC[C@]23C)C1(C)C (stereo partly drawn) [2a, (20S, 24R)-Epoxy-3β-O-(L-alanyl)-dammarane-12β, 25-diol] | 16.5 ± 1.66 | – | –
CSCC[C@H](N)C(=O)O[C@H]1CC[C@@]2(C)C(CC[C@]3(C)C2C[C@@H](O)C2C([C@]4(C)CC[C@H](C(C)(C)O)O4)CC[C@]23C)C1(C)C (stereo partly drawn) [2b, (20S, 24R)-Epoxy-3β-O-(L-methinyl)-dammarane-12β, 25-diol] | 20.3 ± 2.04 | – | –
CC(C)(O)[C@H]1CC[C@@](C)(C2CC[C@]3(C)C2[C@H](O)CC2[C@@]4(C)CC[C@H](OC(=O)CN)C(C)(C)C4CC[C@]23C)O1 (stereo partly drawn) [2c, (20S, 24R)-Epoxy-3β-O-(L-glycyl)-dammarane-12β, 25-diol] | 16.3 ± 0.31 | – | –
CC(C)C[C@H](N)C(=O)O[C@H]1CC[C@@]2(C)C(CC[C@]3(C)C2C[C@@H](O)C2C([C@]4(C)CC[C@H](C(C)(C)O)O4)CC[C@]23C)C1(C)C (stereo partly drawn) [2d, (20S, 24R)-Epoxy-3β-O-(L-leucyl)-dammarane-12β, 25-diol] | 20.1 ± 3.49 | – | –
CC(C)[C@H](N)C(=O)O[C@H]1CC[C@@]2(C)C(CC[C@]3(C)C2C[C@@H](O)C2C([C@]4(C)CC[C@H](C(C)(C)O)O4)CC[C@]23C)C1(C)C (stereo partly drawn) [2f, (20S, 24R)-Epoxy-3β-O-(L-valyl)-dammarane-12β, 25-diol] | 19.7 ± 1.96 | – | –
C[C@H](NC(=O)OC(C)(C)C)C(=O)O[C@H]1CC[C@@]2(C)C([C@@H](O)C[C@]3(C)C2C[C@@H](O)C2C([C@]4(C)CC[C@H](C(C)(C)O)O4)CC[C@]23C)C1(C)C (stereo partly drawn) [3a, (20S, 24R)-Epoxy-3β-O-(Boc-L-alanyl)-dammarane-6α,12β,25-triol] | 61 ± 1.57 | – | –
CSCC[C@H](NC(=O)OC(C)(C)C)C(=O)O[C@H]1CC[C@@]2(C)C([C@@H](O)C[C@]3(C)C2C[C@@H](O)C2C([C@]4(C)CC[C@H](C(C)(C)O)O4)CC[C@]23C)C1(C)C (stereo partly drawn) [3b, (20S, 24R)-Epoxy-3β-O-(Boc-L-methinyl)-dammarane-6α,12β,25-triol] | 88.6 ± 5.03 | – | –
CC(C)(C)OC(=O)NCC(=O)O[C@H]1CC[C@@]2(C)C([C@@H](O)C[C@]3(C)C2C[C@@H](O)C2C([C@]4(C)CC[C@H](C(C)(C)O)O4)CC[C@]23C)C1(C)C (stereo partly drawn) [3c, (20S, 24R)-Epoxy-3β-O-(Boc-L-glycyl)-dammarane-6α,12β,25-triol] | 32.6 ± 1.55 | – | –
CC(C)C[C@H](NC(=O)OC(C)(C)C)C(=O)O[C@H]1CC[C@@]2(C)C([C@@H](O)C[C@]3(C)C2C[C@@H](O)C2C([C@]4(C)CC[C@H](C(C)(C)O)O4)CC[C@]23C)C1(C)C (stereo partly drawn) [3d, (20S, 24R)-Epoxy-3β-O-(Boc-L-leucyl)-dammarane-6α,12β,25-triol] | 74.9 ± 2.87 | – | –
CC(C)(C)OC(=O)N1CCCC1C(=O)O[C@H]1CC[C@@]2(C)C([C@@H](O)C[C@]3(C)C2C[C@@H](O)C2C([C@]4(C)CC[C@H](C(C)(C)O)O4)CC[C@]23C)C1(C)C (stereo partly drawn) [3e, (20S, 24R)-Epoxy-3β-O-(Boc-L-prolyl)-dammarane-6α,12β,25-triol] | 41.8 ± 2.58 | – | –
CC(C)[C@H](NC(=O)OC(C)(C)C)C(=O)O[C@H]1CC[C@@]2(C)C([C@@H](O)C[C@]3(C)C2C[C@@H](O)C2C([C@]4(C)CC[C@H](C(C)(C)O)O4)CC[C@]23C)C1(C)C (stereo partly drawn) [3f, (20S, 24R)-Epoxy-3β-O-(Boc-L-valyl)-dammarane-6α,12β,25-triol] | 80.1 ± 2.03 | – | –
C[C@H](N)C(=O)O[C@H]1CC[C@@]2(C)C([C@@H](O)C[C@]3(C)C2C[C@@H](O)C2C([C@]4(C)CC[C@H](C(C)(C)O)O4)CC[C@]23C)C1(C)C (stereo partly drawn) [4a, (20S, 24R)-Epoxy-3β-O-(L-alanyl)-dammarane-6α,12β,25-triol] | 34 ± 0.9 | – | –
CSCC[C@H](N)C(=O)O[C@H]1CC[C@@]2(C)C([C@@H](O)C[C@]3(C)C2C[C@@H](O)C2C([C@]4(C)CC[C@H](C(C)(C)O)O4)CC[C@]23C)C1(C)C (stereo partly drawn) [4b, (20S, 24R)-Epoxy-3β-O-(L-methinyl)-dammarane-6α,12β,25-triol] | 50.6 ± 0.62 | – | –
CC(C)(O)[C@H]1CC[C@@](C)(C2CC[C@]3(C)C2[C@H](O)CC2[C@@]4(C)CC[C@H](OC(=O)CN)C(C)(C)C4[C@@H](O)C[C@]23C)O1 (stereo partly drawn) [4c, (20S, 24R)-Epoxy-3β-O-(-L-glycyl)-dammarane-6α,12β,25-triol] | 20.6 ± 2.47 | – | –
CC(C)C[C@H](N)C(=O)O[C@H]1CC[C@@]2(C)C([C@@H](O)C[C@]3(C)C2C[C@@H](O)C2C([C@]4(C)CC[C@H](C(C)(C)O)O4)CC[C@]23C)C1(C)C (stereo partly drawn) [4d, (20S, 24R)-Epoxy-3β-O-(L-leucyl)-dammarane-6α,12β,25-triol] | 35.4 ± 1.59 | – | –
CC(C)(O)[C@H]1CC[C@@](C)(C2CC[C@]3(C)C2[C@H](O)CC2[C@@]4(C)CC[C@H](OC(=O)C5CCCN5)C(C)(C)C4[C@@H](O)C[C@]23C)O1 (stereo partly drawn) [4e, (20S, 24R)-Epoxy-3β-O-(L-prolyl)-dammarane-6α,12β,25-triol] | 24.6 ± 0.35 | – | –
CC(C)[C@H](N)C(=O)O[C@H]1CC[C@@]2(C)C([C@@H](O)C[C@]3(C)C2C[C@@H](O)C2C([C@]4(C)CC[C@H](C(C)(C)O)O4)CC[C@]23C)C1(C)C (stereo partly drawn) [4f, (20S, 24R)-Epoxy-3β-O-(L-valyl)-dammarane-6α,12β,25-triol] | 44.7 ± 3.07 | – | –
CC(C)(O)C1CCC(C)(C2CCC3(C)C2C(O)CC2C4(C)CCC(O)C(C)(C)C4CCC23C)O1 (centres unmarked) [Pyxinol] | 74.5 ± 1.09 | low | short

Source: PMC7913291, “Synthesis and Anti-Hepatocarcinoma Effect of Amino Acid Derivatives of Pyxinol and Ocotillol” (Molecules, 2021)
